Test results as given in ChEMBL document CHEMBL1201862, “PubChem BioAssay data set” (2004).
Active and inactive are the calls of the source.

What was measured:
[1] = molecular target: Protein Wnt-3a (Mus musculus, UniProt P27467); assay: antagonism of Wnt3a pathway luciferase reporter – Wnt-LIGHT cells, luminescence, selectivity assay for Gli-SUFU antagonist project, dose response (AID 651570); type: functional; details: read-out: IC50_Mean;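 further: Wnt-LIGHT reporter cells stimulated with conditioned medium from Wnt3a-producing cells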
Sequence of Protein Wnt-3a (P27467 whole entry): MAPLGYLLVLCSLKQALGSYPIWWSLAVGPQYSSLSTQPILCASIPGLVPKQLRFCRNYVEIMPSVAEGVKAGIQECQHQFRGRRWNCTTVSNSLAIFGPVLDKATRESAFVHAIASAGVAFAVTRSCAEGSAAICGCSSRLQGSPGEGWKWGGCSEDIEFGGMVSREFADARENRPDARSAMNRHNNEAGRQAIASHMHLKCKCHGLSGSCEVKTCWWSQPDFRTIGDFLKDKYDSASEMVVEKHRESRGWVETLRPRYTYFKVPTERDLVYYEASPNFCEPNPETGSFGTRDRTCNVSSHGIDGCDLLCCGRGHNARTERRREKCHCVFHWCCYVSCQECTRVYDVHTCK

[2] = molecular target: T1, Short transient receptor potential channel 4 (Mus musculus, UniProt Q9QUQ5); assay: block of DAMGO-driven TRPC4 calcium entry – cell-based, HEK293 TRPC4/mu-opioid, Fluo-4 calcium, dose response (AID 434942); type: functional;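 further: potency of inhibitors blocking the TRPC4 calcium response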
T1 sequence (Q9QUQ5 whole entry): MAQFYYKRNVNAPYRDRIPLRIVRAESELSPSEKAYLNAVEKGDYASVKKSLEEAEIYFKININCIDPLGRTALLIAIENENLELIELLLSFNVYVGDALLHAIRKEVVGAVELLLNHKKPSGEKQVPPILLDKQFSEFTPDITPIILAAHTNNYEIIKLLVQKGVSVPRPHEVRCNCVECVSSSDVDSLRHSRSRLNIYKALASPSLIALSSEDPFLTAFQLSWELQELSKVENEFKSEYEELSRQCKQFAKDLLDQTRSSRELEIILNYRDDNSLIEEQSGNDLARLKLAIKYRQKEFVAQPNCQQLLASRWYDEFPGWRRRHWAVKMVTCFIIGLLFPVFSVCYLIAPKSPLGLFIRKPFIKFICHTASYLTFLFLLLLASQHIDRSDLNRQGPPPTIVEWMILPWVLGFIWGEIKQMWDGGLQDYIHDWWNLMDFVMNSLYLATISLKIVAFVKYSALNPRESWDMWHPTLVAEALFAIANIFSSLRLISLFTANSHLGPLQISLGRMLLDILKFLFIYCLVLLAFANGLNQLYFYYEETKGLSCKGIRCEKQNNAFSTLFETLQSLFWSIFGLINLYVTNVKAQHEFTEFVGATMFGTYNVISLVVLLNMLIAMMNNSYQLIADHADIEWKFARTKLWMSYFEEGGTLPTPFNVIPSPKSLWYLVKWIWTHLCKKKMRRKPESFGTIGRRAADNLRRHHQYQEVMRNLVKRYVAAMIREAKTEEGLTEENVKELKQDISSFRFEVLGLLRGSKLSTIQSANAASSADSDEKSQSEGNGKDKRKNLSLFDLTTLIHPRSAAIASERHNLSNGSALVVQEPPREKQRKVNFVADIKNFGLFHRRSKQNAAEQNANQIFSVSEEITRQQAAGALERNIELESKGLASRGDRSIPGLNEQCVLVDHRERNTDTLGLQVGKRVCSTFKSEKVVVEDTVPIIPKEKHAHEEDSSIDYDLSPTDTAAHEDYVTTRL

[3] = system: HEK293; assay: inhibition of NOD1-driven NF-kB reporter – cell-based, luminescence, uHTS, primary screen (AID 1578); type: functional; details: Homo sapiens
[4] = system: HEK293; assay: cells; type: functional, cell-based; details: Homo sapiens
[5] = system: HEK293; assay: cells; type: functional, cell-based; details: Homo sapiens; remark: listed apart in the source
[6] = system: HEK293; assay: NOD2 signaling inhibitors in MDP-stimulated cells, cell-based, uHTS, luminescence (AID 2001); type: functional; details: Homo sapiens
[7] = intracellular Trypanosoma cruzi inhibitors in host cells – cell-based, plate reader, cherry-pick samples, set 3, dose response (AID 651818); type: functional;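 further: compounds incubated with infected cells for about four days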
[8] = molecular target: Cytochrome P450 3A4 (Homo sapiens, UniProt P08684); details: Potency;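 further: confirmatory qHTS run detecting inhibitors and substrates of CYP3A4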
Sequence of Cytochrome P450 3A4 (P08684 whole entry, the tested form may be a part): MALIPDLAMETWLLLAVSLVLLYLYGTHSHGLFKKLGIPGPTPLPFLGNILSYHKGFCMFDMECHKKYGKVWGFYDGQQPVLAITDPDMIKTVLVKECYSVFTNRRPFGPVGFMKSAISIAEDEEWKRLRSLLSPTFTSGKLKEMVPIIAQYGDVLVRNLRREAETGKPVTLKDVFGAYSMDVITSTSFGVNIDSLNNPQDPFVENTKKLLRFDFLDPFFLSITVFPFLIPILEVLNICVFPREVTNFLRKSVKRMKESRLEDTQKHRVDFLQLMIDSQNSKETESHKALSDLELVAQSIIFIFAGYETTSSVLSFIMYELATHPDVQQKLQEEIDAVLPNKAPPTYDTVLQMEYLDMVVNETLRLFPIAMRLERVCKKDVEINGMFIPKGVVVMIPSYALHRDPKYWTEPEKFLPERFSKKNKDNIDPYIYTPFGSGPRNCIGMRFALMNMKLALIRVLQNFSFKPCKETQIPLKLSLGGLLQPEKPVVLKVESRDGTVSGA

[9] = molecular target: T2, Sentrin-specific protease 1 (Homo sapiens, UniProt Q9P0U3); assay: SENP1 catalytic domain blockers, concentration series – biochemical, kinetic FRET, dose response (AID 651697); type: functional; details: read-out: IC50_Mean
T2 sequence (Q9P0U3 whole entry): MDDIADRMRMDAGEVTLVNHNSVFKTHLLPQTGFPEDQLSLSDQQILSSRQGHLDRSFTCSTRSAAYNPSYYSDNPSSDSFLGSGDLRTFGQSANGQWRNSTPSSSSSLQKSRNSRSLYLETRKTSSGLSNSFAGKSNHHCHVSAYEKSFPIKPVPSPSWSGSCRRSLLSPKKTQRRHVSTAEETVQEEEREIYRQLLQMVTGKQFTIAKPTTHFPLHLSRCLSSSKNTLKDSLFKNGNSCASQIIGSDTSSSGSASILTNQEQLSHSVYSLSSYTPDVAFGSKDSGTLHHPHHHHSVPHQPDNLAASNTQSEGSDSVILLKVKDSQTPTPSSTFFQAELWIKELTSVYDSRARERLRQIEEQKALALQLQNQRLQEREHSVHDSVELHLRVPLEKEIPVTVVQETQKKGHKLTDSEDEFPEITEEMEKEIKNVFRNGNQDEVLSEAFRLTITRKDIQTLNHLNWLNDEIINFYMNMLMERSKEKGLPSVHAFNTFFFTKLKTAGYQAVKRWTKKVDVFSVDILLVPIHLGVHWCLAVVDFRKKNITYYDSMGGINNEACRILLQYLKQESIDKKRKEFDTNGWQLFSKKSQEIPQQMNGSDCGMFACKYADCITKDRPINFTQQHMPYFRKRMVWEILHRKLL

[10] = molecular target: T2, Sentrin-specific protease 1; assay: Dose response confirmation of small molecule inhibitors of the catalytic domain of the SUMO protease, SENP1 in a FRET assay.; type: functional; details: read-out: IC50_Mean

In the case of `Cn1nc(CC(=O)NCc2ccc(C(F)(F)F)cc2)c2ccccc2c1=O`, the IC50 [1] is reported as 1.09 µM (active).
With `O=C(c1ccc(Cl)cc1)C1CCCN(C2CCSCC2)C1` (stereo not given) the EC50 [2] was 0.531 µM (active).
In the case of `C/C(=N\Nc1ccc(Cl)nn1)c1ccccc1O`, the IC50 [1] is reported as 50 µM (inactive).
For `COc1cc(/C=N/Nc2nc3c(c(=O)n(C)c(=O)n3C)n2Cc2ccccc2)ccc1OC(=O)c1ccco1`, the EC50 [3] was 5.22 µM (active), the IC50 [4] was 3.73 µM (active) and the IC50 [5] was 12.3 µM (active). For the same molecule, the IC50 [6] was 5.98 µM (active).
For `C[C@@H]1CN([C@@H](C)CO)C(=O)Cc2cc(NC(=O)Nc3cccc4ccccc34)ccc2O[C@@H]1CN(C)Cc1ccc(Cl)c(Cl)c1`, the AC50 [7] was 3.21 µM (active).
With `C[C@H](CO)N1C[C@H](C)[C@H](CN(C)Cc2ccc(C(F)(F)F)cc2)Oc2ccc(NC(=O)Nc3ccc(C(F)(F)F)cc3)cc2CC1=O` the AC50 [7] was 2.66 µM (active).
In the case of `COc1ccc(CN(C)C[C@H]2Oc3ccc(NC(=O)Cc4cn(C)c5ccccc45)cc3CC(=O)N([C@@H](C)CO)C[C@@H]2C)cc1`, the AC50 [7] is reported as 3.08 µM (active).
In the case of `C[C@@H]1CN([C@H](C)CO)C(=O)c2cccc(NS(=O)(=O)c3ccc(F)cc3)c2O[C@@H]1CN(C)Cc1ccc(C(=O)Nc2ccccc2N)cc1`, the AC50 [7] is reported as 2.86 µM (active).
In the case of `C[C@H]1CN([C@@H](C)CO)C(=O)c2cccc(NC(=O)C3CC3)c2O[C@@H]1CN(C)Cc1ccc(Oc2ccccc2)cc1`, the AC50 [7] is reported as 3.64 µM (active).
In the case of `COC(=O)CC1C(C)(C)C(OC(C)=O)C2CC3=C4CC(=O)OC(c5ccoc5)[C@]4(C)CCC3[C@@]1(C)C2=O` (stereo not given in full), the AC50 [8] is reported as 1.58 µM (inconclusive).
For `COc1ccc(C2C(C(C)=O)=C(C)N=c3s/c(=C\c4ccco4)c(=O)n32)c(OC)c1` (stereo not given), the IC50 [9] was 24.9 µM (inactive) and the IC50 [10] was 20.2 µM (inactive).
